Test results taken from patent publication US4918062A, “Pharmaceutical compositions for the treatment of cerebral psycho-organic syndromes” (Riace Establishment, priority 1987, dated 1990).

Tests used:
acute toxicity in mice = conditions: mouse, in vivo
Excerpt: (§1) As far as acute toxicity is concerned, the following data are obtained: […]

acute toxicity in rats = conditions: rat, in vivo
Excerpt: as §1

[1] = acute toxicity in rabbits; conditions: rabbit, in vivo
Excerpt: as §1

learning and memory [2] = test: electroshock test as described by Esseman (learning and memory); format: in vivo; conditions: male mice, 100 mg/kg i.p.
Method: (§2) The GPE administered i.p. to 20 male mice at the dose of 100 mg/kg subjected to the electroshock test as described by Esseman in Pharmacol. Res. comm.

learning and memory [3] = test: pole-climbing test as described by Cook and Weindley (learning and memory); format: in vivo; conditions: male rats, 100 mg/kg i.p.
learning and memory [4] = test: learning and memory tests in laboratory animals (summary statement); format: in vivo
Method: as §2

[5] = test system: senile cerebral alteration, of both involutive and cerebro-vascular insufficiency origin; test: clinical tests in the treatment of senile cerebral alteration (overall clinical evaluation); format: in vivo, man
Method: 20 patients (10 male and 10 female) 59 to 76 years old were treated; the overall clinical evaluation, taking into account the improvement of the neurophysiological and neurological exams carried out, of the psychometric tests and of the used neurological scale (De Renzi E., Nichelli P.: Verbal and non-verbal short-term memory impairment following hemispheric damage, Cortex, 11, 341-354, 1975; Bisiach E. et. al.: Neurologia Clinica, Ricerche di psicologia, Ed. F. Angeli, Milano, 1977; Cafarra P. et al.: Neuropsychological testing during a transient global amnesia episode and its follow-up, Acta Neurol. Scand.

[6] = oral route, read-out: oral dose that did not cause either death or any symptomatology
[7] = case 1, cerebral vasculopathy with mental decline
[8] = overall clinical evaluation, 20 patients, 59 to 76 years old

Work on `NCCOP(=O)(O)OC[C@H](O)CO` [GPE, L-α-glycerylphosphorylethanolamine] yielded an LD50 (acute toxicity in mice; im, intramuscular route) greater than 1500 mg/kg, an NOAEL (acute toxicity in mice; [6]) of no less than 3000 mg/kg and an LD50 (acute toxicity in rats; im, intramuscular route) greater than 1500 mg/kg. The NOAEL (acute toxicity in rats; [6]) was no less than 3000 mg/kg, the LD50 ([1]; im, intramuscular route) was greater than 1000 mg/kg and the NOAEL [1, 6] was no less than 3000 mg/kg. The “ability to activate learning and memory in comparison to the untreated animals” value (learning and memory [2]) was “significantly shown the ability to activate learning and memory”, the “ability to activate learning and memory in comparison to the untreated animals” value (learning and memory [3]) was “significantly shown the ability to activate learning and memory” and the “response to the learning and memory tests” value (learning and memory [4]) was “significantly improve the response to the learning and memory tests”. For the same compound, the “tolerability (overall)” value ([5]; 20 patients, 59 to 76 years old) was “always excellent”, the “Evaluation: Activity” value [5, 7] was “good” and the “Evaluation: Tolerability” value [5, 7] was “very good”. The “Evaluation: Activity” value ([5]; case 2, mental decline in cerebral vasculopathic) was “insufficient”, the “Evaluation: Activity” value ([5]; case 3, cerebral vasculopathy with mental decline) was “very good” and the “Evaluation: Activity” value ([5]; case 4, mental involution with serious cerebral atrophy) was “very good”. The “Evaluation: Activity” value ([5]; case 5, Alzheimer disease) was “moderate”, the “Evaluation: Activity” value ([5]; case 6, cerebral atrophy with extrapiramidal syndrome and decline) was “moderate” and the “Evaluation: Activity” value ([5]; case 8, multifocal dementia) was “good”. For the same compound, the “Evaluation: Activity” value ([5]; case 9, presenile Alzheimer disease) was “good”, the “Evaluation: Activity” value ([5]; case 10, multifocal dementia with incipient cerebral) was “very good” and the “Evaluation: Activity” value ([5]; case 11, cerebral vasculopathy with mental decline) was “very good”. For the same compound, the “Evaluation: Activity” value ([5]; case 12, Alzheimer disease with cerebral atrophy) was “good”, the “Evaluation: Activity” value ([5]; case 13, cerebral vasculopathy with mental decline) was “good” and the “Evaluation: Activity” value ([5]; case 14, vasculopathy prevailing in the vertebro-basilar) was “moderate”. For the same compound, the “Evaluation: Activity” value ([5]; case 15, cerebral vasculopathy with mental decline) was “moderate”, the “Evaluation: Activity” value ([5]; case 16, Alzheimer disease) was “good” and the “Evaluation: Activity” value ([5]; case 17, Alzheimer disease with initial cerebral atrophy) was “very good”. For the same compound, the “Evaluation: Activity” value ([5]; case 18, Alzheimer disease) was “very good”, the “Evaluation: Activity” value ([5]; case 19, cerebral vasculopathy with cerebral atrophy) was “good” and the “Evaluation: Activity” value ([5]; case 20, multifocal dementia) was “good”. The “influence on neurophysiological parameters, psychometric tests and neurologic scales” value ([5]; man) was “ability to influence in a likewise significant way the neurophysiological parameters, the psychometric tests and the used neurologic scales”, the “cases with significantly positive therapeutic effect” value [5, 8] was 19 cases and the “treatments considered to be insufficient” value [5, 8] was “only one”. For the same compound, the “pharmacological activity in clinical tests” value ([5]; senile cerebral alteration and related symptomatology) was “confirmed in clinical tests”.
